Experimental data taken from patent US6710080B2, “Substituted 2-dialkylaminoalkylbiphenyl derivatives” (Gruenenthal GmbH, priority 1999, dated 2004).
Counter-ions that a name gives are not always drawn.

Experiments:
[1] = tested on: phenylquinone-induced writhing in mice; test: Writhing test in mice; format: in vivo; conditions: Mus musculus, male NMRI mice; for inhibition at 10 mg/kg: 10 mg/kg intravenously 10 minutes before phenylquinone i.p., writhing counted 5-20 minutes after phenylquinone, read-out: % Inhibition of the writhing reaction with 10 mg/kg intravenously; for ED50: iv, intravenously, regression analysis of dose-dependent decrease in writhing reactions
Protocol: The analgesic activity was investigated on phenylquinone-induced writhing in mice (modified by I. C. Hendershot, J. Forsaith, J. Pharmacol. Exp. Ther. 125, 237-240 (1959)). Male NMRI mice weighing 25-30 g were used for this. Groups of 10 animals per dose of substance received 0.3 ml/mouse of a 0.02% aqueous solution of phenylquinone (phenylbenzoquinone, Sigma, Deisenhofen; preparation of the solution with addition of 5% ethanol and storage in a water bath at 45° C.) as an intraperitoneal administration 10 minutes after intravenous administration of the test substances. The animals were placed individually in observation cages. The number of pain-induced extension movements (so-called writhing reactions=straightening of the body with stretching out of the hind extremities) 5-20 minutes after the administration of phenylquinone was counted by means of a push-button counter. Animals which receive only physiological saline solution were also run as a control. All the substances were tested in the standard dosage of 10 mg/kg. The percentage inhibition (% inhibition) of the writhing reaction by a substance was calculated in accordance with the following equation: [formula]
For some substances, the ED50 values with 95% confidence limits of the writhing reaction were calculated from the dose-dependent decrease in the writhing reactions compared with phenylquinone control groups investigated in parallel by means of regression analysis (evaluation program of Martens EDV Service, Eckental Germany).

For `COc1cccc(-c2ccccc2CN(C)C)c1` [Example 1, (3′-Methoxybiphenyl-2-ylmethyl)dimethylamine hydrochloride], which inhibition at 10 mg/kg [1] is on record?
Its inhibition at 10 mg/kg is 53%.

With `CN(C)Cc1ccccc1-c1ccc(Cl)cc1.Cl` [Example 2, (4′-Chlorobiphenyl-2-ylmethyl)dimethylamine hydrochloride] as the compound, how does the ED50 [1] read?
Its ED50 is 4.55 mg/kg.

What about the inhibition at 10 mg/kg [1] of the same compound?
Its inhibition at 10 mg/kg is 89%.

Which ED50 [1] does the source give for `CN(C)Cc1ccccc1-c1cccc(O)c1.Cl` [Example 3, 2′-Dimethylaminomethylbiphenyl-3-ol hydrochloride] here?
Its ED50 is 0.24 mg/kg.

And the inhibition at 10 mg/kg [1]?
Its inhibition at 10 mg/kg is 100%.

What does the source list for `COc1ccccc1-c1ccccc1CN(C)C.Cl` [Example 4, (2′-Methoxybiphenyl-2-ylmethyl)dimethylamine hydrochloride]?
ED50 [1]: 3.95 mg/kg; inhibition at 10 mg/kg [1]: 75%

With `CN(C)Cc1ccccc1-c1cccc(Cl)c1.Cl` [Example 5, (3′-Chlorobiphenyl-2-ylmethyl)dimethylamine hydrochloride] as the compound, how does the ED50 [1] read?
Its ED50 is 4.31 mg/kg.

And the inhibition at 10 mg/kg [1]?
The inhibition at 10 mg/kg was 68%.

Which ED50 [1] does the source give for `CN(C)Cc1ccccc1-c1ccccc1F.Cl` [Example 6, (2′-Fluorobiphenyl-2-ylmethyl)dimethylamine hydrochloride] here?
The ED50 was 4.26 mg/kg.

What about the inhibition at 10 mg/kg [1] of the same compound?
Its inhibition at 10 mg/kg is 88%.

For `CN(C)Cc1ccccc1-c1cccc(F)c1.Cl` [Example 7, (3′-Fluorobiphenyl-2-ylmethyl)dimethylamine hydrochloride], which ED50 [1] is on record?
The ED50 was 2.55 mg/kg.

And the inhibition at 10 mg/kg [1]?
The inhibition at 10 mg/kg was 90%.

Which results are given for `CN(C)Cc1ccccc1-c1ccc(F)cc1.Cl` [Example 8, (4′-Fluorobiphenyl-2-ylmethyl)dimethylamine hydrochloride]?
ED50 [1]: 7.15 mg/kg; inhibition at 10 mg/kg [1]: 67%

With `CN(C)Cc1ccccc1-c1ccc(F)c(Cl)c1.Cl` [Example 9, (3′-Chloro-4′-fluorobiphenyl-2-ylmethyl)dimethylamine hydrochloride] as the compound, how does the ED50 [1] read?
The ED50 was 2.32 mg/kg.

What about the inhibition at 10 mg/kg [1] of the same compound?
Its inhibition at 10 mg/kg is 89%.

For `COc1cccc(-c2ccccc2CCN(C)C)c1.Cl` [Example 10, (3′-Methoxybiphenyl-2-ylethyl)dimethylamine hydrochloride], which ED50 [1] is on record?
Its ED50 is 1.7 mg/kg.

What about the inhibition at 10 mg/kg [1] of the same compound?
Its inhibition at 10 mg/kg is 100%.

Which inhibition at 10 mg/kg [1] does the source give for `Cc1cc2c(-c3ccccc3CN(C)C)cccc2o1` [Example 11, Dimethyl-[2-(2-methylbenzofuran-4-yl)benzyl]amine hydrochloride] here?
Its inhibition at 10 mg/kg is 74%.

Which results are given for `CN(C)Cc1ccccc1-c1ccccc1C=O.Cl` [Example 12, 2′-Dimethylaminomethylbiphenyl-2-carbaldehyde hydrochloride]?
ED50 [1]: 1.74 mg/kg; inhibition at 10 mg/kg [1]: 89%

With `CN(C)Cc1ccccc1-c1cccc(C(F)F)c1.Cl` [Example 13, (3′-Difluoromethylbiphenyl-2-ylmethyl)dimethylamine hydrochloride] as the compound, how does the ED50 [1] read?
Its ED50 is 5.3 mg/kg.

What about the inhibition at 10 mg/kg [1] of the same compound?
The inhibition at 10 mg/kg was 81%.

With `CN(C)Cc1ccccc1-c1cccc(C=O)c1.Cl` [Example 14, 2′-Dimethylaminomethylbiphenyl-3-carbaldehyde hydrochloride] as the compound, how does the ED50 [1] read?
Its ED50 is 2.28 mg/kg.

What about the inhibition at 10 mg/kg [1] of the same compound?
Its inhibition at 10 mg/kg is 100%.

What does the source list for `CN(C)Cc1ccccc1-c1ccccc1.Cl` [Example 15, biphenyl-2-ylmethyldimethylamine hydrochloride]?
ED50 [1]: 3.66 mg/kg; inhibition at 10 mg/kg [1]: 52%

For `CN(C)Cc1ccccc1-c1ccc(Cl)c(Cl)c1.Cl` [Example 16, (3′,4′-Dichlorobiphenyl-2-ylmethyl)dimethylamine hydrochloride], which ED50 [1] is on record?
Its ED50 is 4.59 mg/kg.

What about the inhibition at 10 mg/kg [1] of the same compound?
Its inhibition at 10 mg/kg is 89%.

With `CN(C)Cc1ccccc1-c1cc(Cl)cc(Cl)c1` [Example 17, (3′,5′-Dichlorobiphenyl-2-ylmethyl)dimethylamine hydrochloride] as the compound, how does the inhibition at 10 mg/kg [1] read?
Its inhibition at 10 mg/kg is 90%.

For `CN(C)Cc1ccccc1-c1ccc([N+](=O)[O-])c(C(F)(F)F)c1` [Example 18, Dimethyl-(4′-nitro-3′-trifluoromethylbiphenyl-2-ylmethyl)amine hydrochloride], which inhibition at 10 mg/kg [1] is on record?
The inhibition at 10 mg/kg was 83%.

With `CN(C)Cc1ccccc1-c1ccc(F)c(F)c1` [Example 19, (3′,4′-Difluorobiphenyl-2-ylmethyl)dimethylamine hydrochloride] as the compound, how does the inhibition at 10 mg/kg [1] read?
The inhibition at 10 mg/kg was 86%.

What does the source list for `CN(C)Cc1ccccc1-c1ccc(F)c(C(F)(F)F)c1.Cl` [Example 20, (4′-Fluoro-3′-trifluoromethylbiphenyl-2-ylmethyl)dimethyl-amine hydrochloride]?
ED50 [1]: 4.99 mg/kg; inhibition at 10 mg/kg [1]: 83%

Which results are given for `COc1cc(-c2ccccc2CN(C)C)ccc1Cl.Cl` [Example 21, (4′-Chloro-3′-methoxybiphenyl-2-ylmethyl)dimethylamine hydrochloride]?
ED50 [1]: 6.78 mg/kg; inhibition at 10 mg/kg [1]: 53%

With `CC(=O)Nc1ccc(-c2ccccc2CN(C)C)cc1OC(F)(F)F.Cl` [Example 22, N-(2′-Dimethylaminomethyl-3-trifluoromethoxybiphenyl-4-yl)acetamide hydrochloride] as the compound, how does the ED50 [1] read?
Its ED50 is 6.05 mg/kg.

What about the inhibition at 10 mg/kg [1] of the same compound?
Its inhibition at 10 mg/kg is 76%.

What about the melting point of the same compound?
Its melting point is 182 °C.

Which inhibition at 10 mg/kg [1] does the source give for `CC(C)Oc1cccc(-c2ccccc2CN(C)C)c1` [Example 23, (3′-Isopropoxybiphenyl-2-ylmethyl)dimethylamine hydrochloride] here?
The inhibition at 10 mg/kg was 97%.

Which ED50 [1] does the source give for `CN(C)CCc1ccccc1-c1cccc(O)c1.Cl` [Example 24, 2′-(2-Dimethylaminoethyl)biphenyl-3-ol hydrochloride] here?
Its ED50 is 2.27 mg/kg.

And the inhibition at 10 mg/kg [1]?
The inhibition at 10 mg/kg was 99%.

Which inhibition at 10 mg/kg [1] does the source give for `CN(C)Cc1ccccc1-c1ccc(Cl)c(O)c1` [Example 25, 4-Chloro-2′-dimethylaminomethylbiphenyl-3-ol hydrochloride] here?
Its inhibition at 10 mg/kg is 74%.

Which ED50 [1] does the source give for `CN(C)Cc1ccccc1-c1ccc2[nH]ccc2c1` [Example 26, [2-(1H-Indol-5-yl)benzyl]dimethylamine] here?
Its ED50 is 0.75 mg/kg.

What about the inhibition at 10 mg/kg [1] of the same compound?
Its inhibition at 10 mg/kg is 100%.

For `CN(C)Cc1ccccc1-c1ccc(S(C)(=O)=O)cc1` [Example 27, (4′-Methanesulfonylbiphenyl-2-ylmethyl)dimethylamine hydrochloride], which inhibition at 10 mg/kg [1] is on record?
Its inhibition at 10 mg/kg is 89%.

With `CN(C)Cc1ccccc1-c1ccc(Cl)cc1Cl` [Example 28, (2′,4′-Dichlorobiphenyl-2-ylmethyl)dimethylamine hydrochloride] as the compound, how does the inhibition at 10 mg/kg [1] read?
Its inhibition at 10 mg/kg is 90%.

Which ED50 [1] does the source give for `CN(C)Cc1ccccc1-c1cccc(F)c1F.Cl` [Example 29, (2′,3′-Difluorobiphenyl-2-ylmethyl)dimethylamine hydrochloride] here?
Its ED50 is 5.71 mg/kg.

What about the inhibition at 10 mg/kg [1] of the same compound?
The inhibition at 10 mg/kg was 83%.

For `CN(C)Cc1ccccc1-c1cc(F)ccc1F` [Example 30, (2′,5′-Difluorobiphenyl-2-ylmethyl)dimethylamine hydrochloride], which inhibition at 10 mg/kg [1] is on record?
The inhibition at 10 mg/kg was 89%.

Which inhibition at 10 mg/kg [1] does the source give for `CN(C)Cc1ccccc1-c1ccc2c(c1)OCO2` [Example 31, (2-Benzo [1,3]dioxol-5-ylbenzyl)dimethylamine hydrochloride] here?
The inhibition at 10 mg/kg was 94%.

Which inhibition at 10 mg/kg [1] does the source give for `CC(=O)c1cccc(-c2ccccc2CCN(C)C)c1` [Example 32, 1-[2′-(2-Dimethylaminoethyl)biphenyl-3-yl]ethanone hydrochloride] here?
The inhibition at 10 mg/kg was 98%.

Which inhibition at 10 mg/kg [1] does the source give for `COc1ccc(-c2ccccc2CCN(C)C)cc1OC` [Example 33, [2-(3′,4′-Dimethoxybiphenyl-2-yl)ethyl]dimethylamine hydrochloride] here?
Its inhibition at 10 mg/kg is 89%.

Which inhibition at 10 mg/kg [1] does the source give for `CC(C)Oc1cccc(-c2ccccc2CCN(C)C)c1` [Example 34, [2-(3′-Isopropoxybiphenyl-2-yl)ethyl]dimethylamine hydrochloride] here?
Its inhibition at 10 mg/kg is 80%.

With `COc1cc(-c2ccccc2CCN(C)C)ccc1Cl` [Example 35, [2-(4′-Chloro-3′-methoxybiphenyl-2-yl)ethyl]dimethylamine hydrochloride] as the compound, how does the inhibition at 10 mg/kg [1] read?
The inhibition at 10 mg/kg was 88%.

For `CN(C)CCc1ccccc1-c1ccc(Cl)c(O)c1` [Example 36, 4-Chloro-2′-(2-dimethylaminoethyl)biphenyl-3-ol hydrochloride], which inhibition at 10 mg/kg [1] is on record?
The inhibition at 10 mg/kg was 93%.

With `CN(C)Cc1ccccc1-c1cccc([N+](=O)[O-])c1` [Example 37, Dimethyl-(3′-nitrobiphenyl-2-ylmethyl)amine hydrochloride] as the compound, how does the inhibition at 10 mg/kg [1] read?
The inhibition at 10 mg/kg was 60%.

For `CN(C)Cc1ccccc1-c1ccc(N)c(O)c1` [Example 38, 4-Amino-2′-dimethylaminomethylbiphenyl-3-ol dihydrochloride], which inhibition at 10 mg/kg [1] is on record?
The inhibition at 10 mg/kg was 65%.

With `CN(C)Cc1ccccc1-c1cc(F)cc(F)c1` [Example 39, (3′,5′-Difluorobiphenyl-2-ylmethyl)dimethylamine hydrochloride] as the compound, how does the inhibition at 10 mg/kg [1] read?
Its inhibition at 10 mg/kg is 80%.

Which inhibition at 10 mg/kg [1] does the source give for `COc1ccc(OC)c(-c2ccccc2CN(C)C)c1` [Example 40, (2′,5′-Dimethoxybiphenyl-2-ylmethyl)dimethylamine hydrochloride] here?
The inhibition at 10 mg/kg was 57%.

For `CN(C)Cc1ccccc1-c1cc(OC(F)(F)F)ccc1N` [Example 41, 2′-Dimethylaminomethyl-5-trifluoromethoxybiphenyl-2-ylamine dihydrochloride], which inhibition at 10 mg/kg [1] is on record?
The inhibition at 10 mg/kg was 56%.

Which inhibition at 10 mg/kg [1] does the source give for `CC(=O)Nc1ccc(OC(F)(F)F)cc1-c1ccccc1CN(C)C` [Example 42, N-(2′-Dimethylaminomethyl-5-trifluoromethoxybiphenyl-2-yl)acetamide hydrochloride] here?
The inhibition at 10 mg/kg was 44%.

For `CN(C)Cc1ccccc1-c1cc(Cl)c(N)c(Cl)c1` [Example 43, 3,5-Dichloro-2′-dimethylaminomethyl-biphenyl-4-ylamine hydrochloride], which inhibition at 10 mg/kg [1] is on record?
The inhibition at 10 mg/kg was 99%.
